Assay results as given in US10221163B2 (priority 2015, dated 2019).
Like-named read-outs stand apart in the source and are kept apart here.

How the values were obtained:
IMP-1 = IMP-1 (Serratia marcescens, UniProt P52699); test: biochemical; format: biochemical; settings: fluorescence assay, CCF2-FA substrate, 2 pM enzyme, 2 hours at 25° C.; read-out: IMP-1 IC50
Summary of the method: (§1)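 IC50 values derive from 4-parameter fits of percent inhibition against inhibitor concentration on semi-log axes. Activity was monitored by fluorescence with the CCF2-FA substrate after a 2-hour, 25° C incubation of compound, enzyme and substrate.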

NDM-1 = NDM-1 (Klebsiella pneumoniae, UniProt C7C422); test: biochemical; format: biochemical; settings: fluorescence assay, CCF2-FA substrate, 1 pM enzyme, 2 hours at 25° C.; read-out: NDM-1 IC50
Summary of the method: as §1

VIM-1 = VIM-1 (Pseudomonas aeruginosa (strain ATCC 15692 / DSM 22644 / CIP 104116 / JCM 14847 / LMG 12228 / 1C / PRS 101 / PAO1), UniProt A0A0F7KYQ8); test: biochemical; settings: CCF2-FA substrate, 30 pM enzyme, 2 hours at 25° C.
Summary of the method: as §1

[1] = test system: Escherichia coli expressing NDM-1 (CLB30005, CLB30016); format: cell-based; settings: with imipenem 1 μg/ml; 95% inhibition of bacterial growth
Summary of the method: (§2)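 Colonies grown overnight on blood agar at 35° C were suspended in saline, diluted 1:100 into 1.1×CAMHB and dispensed. Imipenem was added to 1 μg/ml, then test compound. After 22 hours to 24 hours at 35° C, absorbance was recorded.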

[2] = test system: Klebsiella pneumoniae expressing VIM-1 (IHMA599644); format: cell-based; settings: with imipenem 1 μg/ml; 95% inhibition of bacterial growth
Summary of the method: as §2

[3] = test system: Serratia marcescens expressing IMP-1 (CL5741); format: cell-based; settings: with imipenem 1 μg/ml; 95% inhibition of bacterial growth
Summary of the method: as §2

[4] = test system: Pseudomonas aeruginosa efflux+ (MB9798), IMP-1; format: cell-based; settings: concentration restoring susceptibility to imipenem at 2 μg/mL in the presence of a class A, C, D serine β-lactamase inhibitor closely related to relebactam
Summary of the method: (§3)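 PAO1 pair, broth microdilution; fixed β-lactam (imipenem/ceftazidime) at ~CLSI breakpoint + fixed class A/C BLI for AmpC; serial MBLi titration; endpoint = MBLi conc. restoring susceptibility; MB9798:MB9799 ratio = efflux liability.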

[5] = test system: Pseudomonas aeruginosa efflux− (MB9799), IMP-1; format: cell-based; settings: concentration restoring susceptibility to imipenem at 2 μg/mL in the presence of a class A, C, D serine β-lactamase inhibitor closely related to relebactam
Summary of the method: as §3

[6] = test system: Pseudomonas aeruginosa MB9798 vs MB9799; settings: ratio MITC95 PA_9798/MITC95 PA_9799
Source text: The strain background was Pseudomonas aeruginosa PAO1.
The strain set was then used as a pair to determine the effect of metallo-β-lactamase inhibitors of Formula I on the MIC of imipenem and/or ceftazidime. A fixed concentration of antibiotic was included in standard microbroth MIC tests, usually at the CLSI (Clinical and Laboratory Standards Institute) breakpoint concentration. A fixed amount of a class A/C beta-lactamase inhibitor was also included to inhibit the resident Pseudomonas AmpC enzyme. A serial titration of the metallo-β-lactamase inhibitor was included and the concentration of metallo-β-lactamase inhibitor which restores susceptibility of the strain to the included antibiotic was recorded. That concentration of metallo-β-lactamase inhibitor was then compared between the two strains to determine the fold difference between the efflux+ (MB9798) and efflux− (MB9799) strains. This was taken as an indication of the extent to which the MBLi is subject to efflux.

[7] = fluorescence assay, read-out: VIM-1 IC50

Chain of NDM-1 (C7C422 whole entry, looked up, species assumed): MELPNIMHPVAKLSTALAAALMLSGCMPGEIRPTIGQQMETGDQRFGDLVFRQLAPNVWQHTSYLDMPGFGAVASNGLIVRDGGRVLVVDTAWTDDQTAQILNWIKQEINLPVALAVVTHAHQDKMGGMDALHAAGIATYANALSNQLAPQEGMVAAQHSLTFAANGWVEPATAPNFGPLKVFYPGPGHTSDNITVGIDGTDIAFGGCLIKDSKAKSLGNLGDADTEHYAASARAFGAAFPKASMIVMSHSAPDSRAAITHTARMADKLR
Chain of IMP-1 (P52699 whole entry, looked up, species assumed): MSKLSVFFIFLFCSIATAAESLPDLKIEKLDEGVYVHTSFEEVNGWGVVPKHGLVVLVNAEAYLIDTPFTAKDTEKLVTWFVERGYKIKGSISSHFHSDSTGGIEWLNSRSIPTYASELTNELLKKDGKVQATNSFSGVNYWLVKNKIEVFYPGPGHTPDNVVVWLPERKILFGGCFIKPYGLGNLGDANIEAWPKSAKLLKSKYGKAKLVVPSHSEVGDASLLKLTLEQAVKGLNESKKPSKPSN

SMILES | IC50 (IMP-1) [nM] | IC50 (NDM-1) [nM] | IC50 (VIM-1; [7]) [nM] | Escherichia coli expressing NDM-1 (CLB30016) MITC95 [1] [µM] | Klebsiella pneumoniae expressing VIM-1 (IHMA599644) MITC95 [2] [µM] | Serratia marcescens expressing IMP-1 (CL5741) MITC95 [3] [µM] | P. aeruginosa expressing IMP-1, efflux + (MB9798) MITC95 [4] [µM] | P. aeruginosa expressing IMP-1, efflux − (MB9799) MITC95 [5] [µM] | Efflux ratio [6] | IC50 (VIM-1; VIM-1 IC50, fluorescence assay) [nM]
Cl.Cn1c(N)nc2c(-c3ccc(S(=O)(=O)NCCN)c(S(N)(=O)=O)c3-c3nn[nH]n3)cccc21 [Example 10, 4-(2-amino-1-methyl-1H-benzo[d]imidazol-4-yl)-N1-(2-aminoethyl)-3-(2H-tetrazol-5-yl)benzene-1,2-disulfonamide hydrochloride] | 0.235 | 0.0901 | 0.177 | 0.1875 | 1.531 | 0.6406 | 0.7656 | 0.7656 | 1.00 | –
NCCNS(=O)(=O)c1ccc(-c2cccc3[nH]c(N)nc23)c(-c2nn[nH]n2)c1S(N)(=O)=O [Example 12, 4-(2-amino-1H-benzo[d]imidazol-4-yl)-N^1-(2-aminoethyl)-3-(2H-tetrazol-5-yl)benzene-1,2-disulfonamide] | 0.316 | 0.0429 | – | 0.25 | 0.5703 | 0.6302 | 0.375 | 0.5 | 0.75 | 0.102
NCCNS(=O)(=O)c1ccc(-c2cccc3oc(C(=O)O)nc23)c(-c2nn[nH]n2)c1S(N)(=O)=O [Example 13, 4-(4-(N-(2-aminoethyl)sulfamoyl)-3-sulfamoyl-2-(2H-tetrazol-5-yl)phenyl)benzo[d]oxazole-2-carboxylic acid] | 2.14 | 0.0757 | 0.412 | 12.5 | 25 | 12.5 | 12.5 | 6.25 | 2.00 | –
Nc1nc2c(-c3ccc(S(=O)(=O)NC4CCS(=O)(=O)CC4)c(S(N)(=O)=O)c3-c3nnn[nH]3)cccc2s1 [Example 14, 4-(2-amino-1,3-benzothiazol-4-yl)-N1-(1,1-dioxidotetrahydro-2H-thiopyran-4-yl)-3-(1H-tetrazol-5-yl)benzene-1,2-disulfonamide] | 0.173 | 0.0255 | 0.176 | 12.5 | 12.5 | 3.125 | 3.125 | 3.125 | 1.00 | –
Nc1nc2c(-c3ccc(S(=O)(=O)NCCN4CCNC(=O)C4)c(S(N)(=O)=O)c3-c3nnn[nH]3)cccc2s1 [Example 15, 4-(2-amino-1,3-benzothiazol-4-yl)-N1-[2-(3-oxopiperazin-1-yl)ethyl]-3-(1H-tetrazol-5-yl)benzene-1,2-disulfonamide] | 0.451 | 0.0926 | 0.394 | 50 | 25 | 12.5 | 12.5 | 12.5 | 1.00 | –
CN(C)CC(F)(F)CNS(=O)(=O)c1ccc(-c2cccc3sc(N)nc23)c(-c2nnn[nH]2)c1S(N)(=O)=O [Example 16, 4-(2-amino-1,3-benzothiazol-4-yl)-N1-[3-(dimethylamino)-2,2-difluoropropyl]-3-(1H-tetrazol-5-yl)benzene-1,2-disulfonamide] | 0.442 | 0.0921 | 0.461 | 25 | 25 | 12.5 | 100 | 6.25 | 16.00 | –
CN1CCOC(CNS(=O)(=O)c2ccc(-c3cccc4sc(N)nc34)c(-c3nnn[nH]3)c2S(N)(=O)=O)C1 (stereo not drawn) [Example 17, 4-(2-amino-1,3-benzothiazol-4-yl)-N1-[(4-methylmorpholin-2-yl)methyl]-3-(1H-tetrazol-5-yl)benzene-1,2-disulfonamide] | 0.43 | 0.0889 | 0.41 | 12.5 | 12.5 | 6.25 | 12.5 | 6.25 | 2.00 | –
CN1CCCC(NS(=O)(=O)c2ccc(-c3cccc4sc(N)nc34)c(-c3nnn[nH]3)c2S(N)(=O)=O)C1 (stereo not drawn) [Example 18, 4-(2-amino-1,3-benzothiazol-4-yl)-N1-(1-methylpiperidin-3-yl)-3-(1H-tetrazol-5-yl)benzene-1,2-disulfonamide] | 0.268 | 0.0488 | 0.271 | 6.25 | 6.25 | 3.125 | 3.125 | 3.125 | 1.00 | –
Nc1nc2c(-c3ccc(S(=O)(=O)NCC4CCC(=O)N4)c(S(N)(=O)=O)c3-c3nnn[nH]3)cccc2s1 (stereo not drawn) [Example 19, 4-(2-amino-1,3-benzothiazol-4-yl)-N1-[(5-oxopyrrolidin-2-yl)methyl]-3-(1H-tetrazol-5-yl)benzene-1,2-disulfonamide] | 0.486 | 0.0953 | 0.335 | 50 | 25 | 6.25 | 6.25 | 6.25 | 1.00 | –
Cn1cnc(CNS(=O)(=O)c2ccc(-c3cccc4sc(N)nc34)c(-c3nnn[nH]3)c2S(N)(=O)=O)n1 [Example 20, 4-(2-amino-1,3-benzothiazol-4-yl)-N^1-[(1-methyl-1H-1,2,4-triazol-3-yl)methyl]-3-(1H-tetrazol-5-yl)benzene-1,2-disulfonamide] | 0.817 | 0.0973 | 0.494 | 25 | 25 | 6.25 | 6.25 | 6.25 | 1.00 | –
CN(C)CCNS(=O)(=O)c1ccc(-c2cccc3sc(N)nc23)c(-c2nnn[nH]2)c1S(N)(=O)=O [Example 22, 4-(2-amino-1,3-benzothiazol-4-yl)-N^1-[2-(dimethylamino)ethyl]-3-(1H-tetrazol-5-yl)benzene-1,2-disulfonamide] | 0.413 | 0.0348 | 0.233 | 6.25 | 3.125 | 3.125 | 1.563 | 1.563 | 1.00 | –
